Experimental data reported in patent US9006269B2, “Azetidine derivatives” (Vernalis (R&D) Ltd., priority 2008, dated 2015).

Key:
[1] = target: rat FAAH protein (30-579) (Rattus norvegicus (Rat), UniProt P97612); experiment: Rat FAAH inhibition assay (AAMCA fluorescence); format: biochemical; conditions: 3-hour pre-incubation with compound, 120 nM FAAH; read-out: FAAH Rat IC50 (nM) 180 minutes
Text: Rat FAAH Inhibition Assay
Active rat FAAH protein (30-579) was isolated as described in the literature. The coding sequence of amino acids 30-579 of rat FAAH were cloned into the expression vector pET28a to provide an N-terminal His-tag. Following expression, the His-tagged FAAH′ (30-579) was isolated using a method based on Patricelli et al., 1998; Biochemistry vol 37, p 15177 with a combination of chelating sepharose, heparin sepharose and size exclusion chromatography.
FAAH activity was determined by measuring the liberation of the highly fluorescent 7-amino, 4-methyl Coumarin (AMC) generated during hydrolysis of the substrate Arachidonoyl 7-Amino, 4-methyl Coumarin Amide (AAMCA) by FAAH. Inhibition of FAAH activity was determined as a percentage reduction of the fluorescence determined in the absence of compound.
The assay was carried out in black-walled, clear bottom, 384-well plates. 27.5 μl of FAAH protein (in FAAH assay buffer: 50 mM Hepes, 0.01% Triton X-100, 1 mM EDTA, 0.5 mg/ml BSA (fatty-acid-free), pH 8.2) was pre-incubated, at 120 nM, with increasing concentrations of compounds (2.5 μl in 100% DMSO) for 0, 1 or 3 hours at room temperature. 2.5 μl of DMSO was added for ‘total’ controls (100% FAAH activity) and 2.5 μl of URB-597, a known inhibitor of FAAH activity, (at a final, saturating, concentration of 10 μM) was used for ‘non-specific’ controls (0% FAAH activity). 20 μl of 7.5 μM AAMCA substrate (in FAAH assay buffer) was then added to all wells and incubated at room temperature for a further 1.5 hours. Fluorescence was determined at an excitation wavelength of 355 nm and an emission wavelength of 460 nm using a Flexstation plate reader (Molecular Devices, UK). Inhibition of FAAH activity, by the compounds, was determined as the percentage reduction in relative fluorescence units (RFU) compared to the ‘total’ controls (in the absence of compound) minus the ‘non-specific’ controls. IC50 values were determined, from 10-point dose response curves, in XL-Fit using a 4-Parameter Logistic Model (Sigmoidal Dose-Response Model).
The following Table 1 provides the 3-hour incubation results of testing the compounds of Examples 1-4 herein in the above rat FAAH inhibition assay.

FAAH = FAAH (Homo sapiens (Human), UniProt O00519); experiment: Intrinsic FAAH inhibitory potency (summary statement); format: biochemical; conditions: qualitative statement
[2] = Plasma concentrations after oral administration in laboratory rats; format: in vivo, rat
human FAAH 1 = human FAAH 1 (Homo sapiens (Human), UniProt O00519); experiment: Human FAAH 1 assay (AAMCA fluorescence); format: biochemical; conditions: 1 hour pre-incubation with compound, 10 nM FAAH; read-out: FAAH Human IC50 (nM) 60 minutes (n = 2)
Experimental: Part B Human FAAH 1 Assay
Human FAAH 1 activity was determined by measuring the liberation of the highly fluorescent 7-amino, 4-methyl Coumarin (AMC) generated during hydrolysis of the substrate arachidonoyl 7-amino, 4-methyl coumarin amide (AAMCA) by FAAH. Inhibition of human FAAH 1 activity was determined as a percentage reduction of the fluorescence determined in the absence of compound.
The assay was carried out in black-walled, clear bottom, 384-well plates. 27.5 μl of human FAAH 1 protein (in FAAH assay buffer: 50 mM Hepes, 0.01% Triton X-100, 1 mM EDTA, 0.5 mg/ml BSA (fatty-acid-free), pH 8.2) was pre-incubated, at 10 nM, with increasing concentrations of compounds (2.5 μl in 100% DMSO) for 1 hour at room temperature. 2.5 μl of DMSO was added for ‘total’ controls (100% FAAH activity) and 2.5 μl of URB-597, a known inhibitor of FAAH activity, (at a final, saturating, concentration of […]) was used for ‘non-specific’ controls (0 FAAH activity). 20 μl of 7.5 μM AAMCA substrate (in FAAH assay buffer) was then added to all wells and incubated at room temperature for a further 4 hours. Fluorescence was determined at an excitation wavelength of 355 nm and an emission wavelength of 460 nm using a Flexstation plate reader (Molecular Devices, UK). Inhibition of human FAAH 1 activity, by the compounds, was determined as the percentage reduction in relative fluorescence units (RFU) compared to the ‘total’ controls (in the absence of compound) minus the ‘non-specific’ controls. IC50 values were determined, from 10-point dose response curves, in XL-Fit using a 4-Parameter Logistic Model (Sigmoidal Dose-Response Model).

[3] = test system: carrageenan-induced thermal hypersensitivity; experiment: Rat carrageenan induced thermal hyperalgesia model of inflammatory pain; format: in vivo
Experimental: Part C Rat Carrageenan Induced Thermal Hyperalgesia Model of Inflammatory Pain.
Male Wistar rats were assessed for thermal pain sensitivity by applying a focused light beam onto the hind paws and recording the time to paw withdrawal, before and after local intraplantar administration of carrageenan. After 3 h, thermal pain sensitivity was reassessed in treated and untreated hind paws prior to dosing with test compound or vehicle. Indomethacin was administered as a positive control.
Male Sprague Dawley rats were tail-marked, and acclimatised to the plantar boxes on 3 separate occasions (6, 5 and 1 day prior to the test day) for at least 5 min on each occasion. On the pre-test day, the rats were habituated to the test room for at least 30 min prior to testing. The rats were put into the Hargreaves plantar boxes, allowed to settle down for approx 3-5 min, and challenged with the mobile radiant heat source. The latency to withdraw both left and right hindpaws from the heat source was determined on 2 occasions (3 min apart). The mean across the 2 challenges was recorded as the baseline for each animal. Rats 18 and 30 were not used in the study as they had very high baseline readings, and they were replaced by 61 and 63. Rats were then allocated to drug treatments ensuring the baseline latencies were balanced across groups.
On the test day, rats received intraplantar carrageenan lambda (100 uL of 1% in saline), or saline in right hindpaw 3 hours before testing. Four hours before testing, rats received VER-158416 (1, 3, or 10 mg/kg) or vehicle (5% EtOH: 95% (1% methylcellulose in water) p.o. Subsequently, 30 min before testing, rats received a second injection of either indomethacin 10 mg/kg or vehicle (50% 0.1M Na2CO3: 47.5% phosphate buffered saline (PBS): 2.5% 1M HCl) i.p. At the scheduled test time following drug treatment, the latency to withdraw the paw from the radiant heat source was reassessed by a single reading.
For example, the compound of Example 13 above was tested as follows:
Rats were dosed with intraplantar carrageenan at t=0; the compound of Example 13 (1, 3 & 10 mg/kg po) or vehicle (5% EtOH: 95% (1% methylcellulose in water) at t=2 h; indomethacin (10 mg/kg ip) or vehicle at t=2.5 h and thermal sensitivity was measured at t=3 h. Thus all rats received both oral and ip dosing.

Chain of rat FAAH protein (30-579) (P97612 30-579): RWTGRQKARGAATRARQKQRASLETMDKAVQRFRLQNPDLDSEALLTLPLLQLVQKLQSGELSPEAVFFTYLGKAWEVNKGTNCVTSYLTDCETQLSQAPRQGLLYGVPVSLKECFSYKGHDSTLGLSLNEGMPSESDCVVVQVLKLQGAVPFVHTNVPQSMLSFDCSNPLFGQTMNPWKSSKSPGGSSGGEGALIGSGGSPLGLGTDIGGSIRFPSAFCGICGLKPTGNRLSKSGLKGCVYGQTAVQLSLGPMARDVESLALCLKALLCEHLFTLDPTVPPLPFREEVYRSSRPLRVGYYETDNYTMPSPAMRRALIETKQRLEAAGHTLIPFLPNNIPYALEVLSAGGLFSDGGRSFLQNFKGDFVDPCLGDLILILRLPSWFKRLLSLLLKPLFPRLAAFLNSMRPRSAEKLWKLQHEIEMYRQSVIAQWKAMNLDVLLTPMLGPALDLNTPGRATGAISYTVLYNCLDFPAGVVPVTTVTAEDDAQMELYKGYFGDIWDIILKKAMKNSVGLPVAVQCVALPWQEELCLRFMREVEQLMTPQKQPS
Chain of human FAAH 1 (O00519 whole entry): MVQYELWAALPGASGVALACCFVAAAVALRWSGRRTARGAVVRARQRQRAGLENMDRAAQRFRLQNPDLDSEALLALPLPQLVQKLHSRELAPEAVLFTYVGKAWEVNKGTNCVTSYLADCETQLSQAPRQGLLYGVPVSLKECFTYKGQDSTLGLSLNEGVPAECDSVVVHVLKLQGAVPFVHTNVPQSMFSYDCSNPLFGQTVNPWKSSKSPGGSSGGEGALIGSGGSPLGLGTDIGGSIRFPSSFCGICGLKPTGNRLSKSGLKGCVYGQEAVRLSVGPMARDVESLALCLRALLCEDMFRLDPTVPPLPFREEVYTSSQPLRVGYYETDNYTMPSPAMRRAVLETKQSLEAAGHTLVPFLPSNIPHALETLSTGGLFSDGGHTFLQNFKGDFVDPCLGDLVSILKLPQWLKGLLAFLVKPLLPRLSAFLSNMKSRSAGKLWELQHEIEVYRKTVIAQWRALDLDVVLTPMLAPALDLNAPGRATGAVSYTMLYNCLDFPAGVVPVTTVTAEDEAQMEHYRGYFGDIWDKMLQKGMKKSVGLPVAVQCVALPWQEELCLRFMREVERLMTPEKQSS
Chain of FAAH (O00519 whole entry): as above

O=C(Nc1ccccc1)N1CC(Oc2ccc(-c3ccccc3)cc2)C1 [Example 1, 3-(biphenyl-4-yloxy)-azetidine-1-carboxylic acid phenylamide]
IC50 [1]: 135 nM

O=C(Nc1cccc(F)c1)N1CC(Oc2ccc(-c3ccccc3)cc2)C1 [Example 2, 3-(Biphenyl-4-yloxy)-azetidine-1-carboxylic acid (3-fluoro-phenyl)-amide]
IC50 [1]: 279 nM

O=C(Nc1ccccc1F)N1CC(Oc2ccc(-c3ccccc3)cc2)C1 [Example 3, 3-(Biphenyl-4-yloxy)-azetidine-1-carboxylic acid (2-fluoro-phenyl)-amide]
IC50 [1]: 77 nM

O=C(Nc1cccnc1)N1CC(Oc2ccc(-c3ccccc3)cc2)C1 [Example 4, 3-(Biphenyl-4-yloxy)-azetidine-1-carboxylic acid pyridin-3-ylamide]
intrinsic-FAAH inhibitory potency (FAAH): good
plasma concentrations after oral administration [2]: high and prolonged
IC50 [1]: 67 nM

COCCOc1cccc(-c2ccc(OC3CN(C(=O)Nc4ccncn4)C3)nc2)c1 [Example 5, 3-{5-[3-(2-Methoxy-ethoxy)-phenyl]-pyridin-2-yloxy}-azetidine-1-carboxylic acid pyrimidin-4-ylamide]
IC50 (human FAAH 1): 9 nM

COCCOc1cccc(-c2ccc(OC3CN(C(=O)Nc4cnccn4)C3)nc2)c1 [Example 6, 3-{5-[3-(2-Methoxy-ethoxy)-phenyl]-pyridin-2-yloxy}-azetidine-1-carboxylic acid pyrazin-2-ylamide]
IC50 (human FAAH 1): 73 nM

COCCOc1cccc(-c2ccc(OC3CN(C(=O)Nc4cccnn4)C3)nc2)c1 [Example 7, 3-{5-[3-(2-Methoxy-ethoxy)-phenyl]-pyridin-2-yloxy}-azetidine-1-carboxylic acid pyridazin-3-ylamide]
intrinsic-FAAH inhibitory potency (FAAH): good
plasma concentrations after oral administration [2]: high and prolonged
IC50 (human FAAH 1): 19 nM

COCCOc1cccc(-c2ccc(OC3CN(C(=O)Nc4cccnc4)C3)nc2)c1 [Example 8, 3-{5-[3-(2-Methoxy-ethoxy)-phenyl]-pyridin-2-yloxy}-azetidine-1-carboxylic acid pyridin-3-ylamide]
IC50 (human FAAH 1): 18 nM

O=C(Nc1cccnn1)N1CC(Oc2ccc(-c3cccc(OCCOCc4ccccc4)c3)cn2)C1 [Example 9, 3-{5-[3-(2-Benzyloxy-ethoxy)-phenyl]-pyridin-2-yloxy}-azetidine-1-carboxylic acid pyridazin-3-ylamide]
IC50 (human FAAH 1): 3 nM

O=C(Nc1cccnn1)N1CC(Oc2ccc(-c3cccc(OCCO)c3)cn2)C1 [Example 10, 3-{5-[3-(2-Hydroxy-ethoxy)-phenyl]-pyridin-2-yloxy}-azetidine-1-carboxylic acid pyridazin-3-ylamide]
IC50 (human FAAH 1): 49 nM

COCCOc1ccc(OC)c(-c2ccc(OC3CN(C(=O)Nc4cccnn4)C3)nc2)c1 [Example 11, 3-{5-[2-Methoxy-5-(2-methoxy-ethoxy)-phenyl]-pyridin-2-yloxy}-azetidine-1-carboxylic acid pyridazin-3-ylamide]
IC50 (human FAAH 1): 19 nM

COc1ccc(OC)c(-c2ccc(OC3CN(C(=O)Nc4cccnn4)C3)nc2)c1 [Example 12, 3-[5-(2,5-Dimethoxy-phenyl)-pyridin-2-yloxy]-azetidine-1-carboxylic acid pyridazin-3-ylamide]
IC50 (human FAAH 1): 12 nM

O=C(Nc1cccnn1)N1CC(Oc2ccc(-c3ccccc3)cn2)C1 [Example 13, 3-(5-Phenyl-pyridin-2-yloxy)-azetidine-1-carboxylic acid pyridazin-3-ylamide]
intrinsic-FAAH inhibitory potency (FAAH): good
effect on contralateral paw sensitivities to thermal pain ([3]; 1, 3, 10 mg/kg p.o., rat): no effect
inhibition of carrageenan-induced thermal hypersensitivity ([3]; 1, 3, 10 mg/kg p.o., rat): dose-related inhibition
reduction of pain sensitivity to below normal levels ([3]; 1, 3, 10 mg/kg p.o., rat): did not reduce pain sensitivity to below normal levels
statistical significance of inhibition vs vehicle/carrageenan group ([3]; at 3 and 10 mg/kg doses p.o., one way ANOVA, Newman-Keuls): reached statistical significance
plasma concentrations after oral administration [2]: high and prolonged
IC50 (human FAAH 1): 38 nM

O=C(Nc1cccnn1)N1CC(Oc2ccc(-c3c(F)cccc3F)cn2)C1 [Example 14, 3-[5-(2,6-Difluoro-phenyl)-pyridin-2-yloxy]-azetidine-1-carboxylic acid pyridazin-3-ylamide]
IC50 (human FAAH 1): 14 nM

COCCOc1ccc(Cl)c(-c2ccc(OC3CN(C(=O)Nc4cccnn4)C3)nc2)c1 [Example 15, 3-{5-[2-Chloro-5-(2-methoxy-ethoxy)-phenyl]-pyridin-2-yloxy}-azetidine-1-carboxylic acid pyridazin-3-yl-amide]
IC50 (human FAAH 1): 7 nM

O=C(Nc1cnccn1)N1CC(Oc2ccc(-c3ccccc3F)cn2)C1 [Example 16, 3-[5-(2-Fluoro-phenyl]-pyridin-2-yloxy]-azetidine-1-carboxylic acid pyrazin-2-ylamide]
IC50 (human FAAH 1): 42 nM

COc1ccccc1-c1ccc(OC2CN(C(=O)Nc3cccnn3)C2)nc1 [Example 17, 3-[5-(2-Methoxy-phenyl)-pyridin-2-yloxy]-azetidine-1-carboxylic acid pyridazin-3-ylamine]
plasma concentrations after oral administration [2]: high and prolonged

O=C(Nc1cccnn1)N1CC(Oc2ccc(-c3ccccc3F)cn2)C1 [Example 18, 3-[5-(2-Fluoro-phenyl)-pyridin-2-yloxy]-azetidine-1-carboxylic acid pyridazin-3-ylamide]
intrinsic-FAAH inhibitory potency (FAAH): good
plasma concentrations after oral administration [2]: high and prolonged
IC50 (human FAAH 1): 16 nM

COc1cccc(-c2ccc(OC3CN(C(=O)Nc4cccnn4)C3)nc2)c1F [Example 19, 3-[5-(2-Fluoro-3-methoxy-phenyl)-pyridin-2-yloxy]-azetidine-1-carboxylic acid pyridazin-3-ylamide]
IC50 (human FAAH 1): 26 nM
